The source of these data is patent publication US9107411B2, “Indolecarboxamides and benzimidazolecarboxamides as insecticides and acaricides” (BAYER INTELLECTUAL PROPERTY GMBH, priority 2011, dated 2015).

One data set concerns Tetranychus urticae. In words: Tetranychus test, OP-resistant (TETRUR spray treatment). The settings on record: bean leaf discs, after 6 days. It counts as in vivo. A digest of the protocol:
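Bean leaf discs infested with all stages of OP-resistant T. urticae sprayed with compound formulated in acetone/DMF plus alkylaryl polyglycol ether emulsifier, diluted in water. Efficacy (% mites killed) scored after 6 days.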

For a further data set, the system named is Myzus persicae. In words: Myzus test (MYZUPE spray treatment). It counts as in vivo. Particulars: Chinese cabbage leaf discs, after 6 days. On the procedure:
Myzus Test (MYZUPE Spray Treatment) Solvent: 78 parts by weight of acetone • • 1.5 parts by weight of dimethylformamide Emulsifier: 0.5 part by weight of alkylaryl polyglycol ether To produce an appropriate active ingredient formulation, 1 part by weight of active ingredient is mixed with the stated amounts of solvent and emulsifier, and the concentrate is diluted with emulsifier-containing water to the desired concentration. Leaf discs of Chinese cabbage (Brassica pekinensis) infested by all stages of the green peach aphid (Myzus persicae) are sprayed with an active ingredient formulation of the desired concentration. After 6 days, the efficacy in % is determined. 100% means that all of the aphids have been killed; 0% means that none of the aphids have been killed.

Another data set concerns Phaedon cochleariae. The data set is described as follows: Phaedon test (PHAECO spray treatment). It counts as in vivo. The settings on record: Chinese cabbage leaf discs, after 7 days. The procedure, abridged:
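Chinese cabbage leaf discs were sprayed with compound in acetone/DMF with emulsifier, diluted in water to the test concentration. After drying, discs were infested with mustard beetle larvae. Efficacy in % was scored after 7 days, where 100% means all larvae were killed and 0% means none.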

A further data set relates to Spodoptera frugiperda. The data set is described as follows: Spodoptera frugiperda test (SPODFR spray treatment). It counts as in vivo. The settings on record: maize leaf discs, after 7 days. The procedure, abridged: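 Maize leaf discs sprayed with active ingredient formulated in acetone/dimethylformamide with emulsifier, diluted in emulsifier-containing water to the desired concentration. After drying, discs were populated with armyworm caterpillars. Efficacy (%) scored after 7 days: 100% all caterpillars killed, 0% none killed.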

A short description of another data set: logP (HPLC-MS). It counts as physicochemical.
[1] abbreviates: HPLC, reversed-phase column (C18), acidic range pH 2.7, acetonitrile (0.1% formic acid)/water gradient, 43° C., calibration with unbranched alkan-2-ones.
Where [2] appears, read: HPLC, reversed-phase column (C18), 43° C., acidic range pH 2.7, EEC directive 79/831 Annex V.A8, two values = both regioisomers (G = N).

Like-named read-outs stand apart in the source and are kept apart here.

In the case of `N#CCn1c(C(=O)NC(c2ccc(F)c(C(F)(F)F)c2)C(F)(F)F)nc2cc(C(=O)NC3CC3)c(Cl)cc21` (stereo not drawn) [Compound 301], the efficacy in % in the data set on Tetranychus urticae (application rate 500 g/ha) came out at 90%; with Myzus persicae (application rate 500 g/ha), 90%; in the data set on Phaedon cochleariae (application rate 500 g/ha), 100%; in the data set with Spodoptera frugiperda (application rate 500 g/ha) it was 100%.

Regarding `CCn1c(C(=O)NC(c2cccc(C(F)(F)F)c2)C(F)(F)F)cc2cc(C(=O)NC3(C#N)CC3)c(C)cc21` (stereo not drawn) [Compound 183], the efficacy in % with Tetranychus urticae (application rate 100 g/ha) is given as 100%; with Myzus persicae (application rate 100 g/ha) it was 90%; with Phaedon cochleariae (application rate 100 g/ha), 100%; in the data set on Spodoptera frugiperda (application rate 100 g/ha) it was 100%. Moreover, the log p in “logP (HPLC-MS)” (setting [1]) was 3.75.

Consider `C#CCn1c(C(=O)NC(c2cccc(Cl)c2)C(F)(F)F)cc2cc(C(=O)NC3CC3)c(Cl)cc21` (stereo not drawn) [Compound 5], for which the efficacy in % with Tetranychus urticae (application rate 500 g/ha) came out at 100%; in the data set on Myzus persicae (application rate 500 g/ha), 90%; with Phaedon cochleariae (application rate 500 g/ha), 100%; in the data set with Spodoptera frugiperda (application rate 500 g/ha), 100%. The same compound registered a log p in “logP (HPLC-MS)” (setting [1]) of 3.45.

On to `C#CCn1c(C(=O)NC(c2cccc(C(F)(F)F)c2)C(F)(F)F)cc2cc(C(=O)NC3(C#N)CC3)c(C)cc21` (stereo not drawn) [Compound 209], for which the efficacy in % with Tetranychus urticae (application rate 100 g/ha) is 100%; in the data set on Myzus persicae (application rate 100 g/ha) it was 90%; in the data set on Phaedon cochleariae (application rate 100 g/ha) it was 100%; in the data set on Spodoptera frugiperda (application rate 100 g/ha), 100%. This compound showed a log p in the data set “logP (HPLC-MS)” (setting [1]) of 3.48.

As to `CCn1c(C(=O)NC(c2ccc(Cl)c(Cl)c2)C(F)(F)F)cc2cc(C(=O)NC3(C#N)CC3)c(Cl)cc21` (stereo not drawn) [Compound 316], the efficacy in % came out at 100% with Tetranychus urticae (application rate 100 g/ha), 90% with Myzus persicae (application rate 100 g/ha), 100% in the data set with Phaedon cochleariae (application rate 100 g/ha) and 100% in the data set on Spodoptera frugiperda (application rate 100 g/ha). Besides, the log p in the data set “logP (HPLC-MS)” (setting [2]) is listed as 4.06.

Consider `CCn1c(C(=O)NC(c2ccc(F)c(F)c2)C(F)(F)F)cc2cc(C(=O)NC3CC3)c(C)cc21` (stereo not drawn) [Compound 295], for which the efficacy in % is listed as 100% with Tetranychus urticae (application rate 100 g/ha), 90% in the data set with Myzus persicae (application rate 100 g/ha), 100% with Phaedon cochleariae (application rate 100 g/ha) and 100% with Spodoptera frugiperda (application rate 100 g/ha). Also, the log p in “logP (HPLC-MS)” (setting [2]) amounted to 3.40.

Consider `CCn1c(C(=O)NC(c2cc(Cl)c(F)c(Cl)c2)C(F)(F)F)cc2cc(C(=O)NC3(C#N)CC3)c(Cl)cc21` (stereo not drawn) [Compound 311], for which the efficacy in % with Tetranychus urticae (application rate 100 g/ha) is listed as 100%; in the data set with Myzus persicae (application rate 100 g/ha), 90%; in the data set with Phaedon cochleariae (application rate 100 g/ha) it was 100%; in the data set on Spodoptera frugiperda (application rate 100 g/ha) it was 100%. In “logP (HPLC-MS)” (setting [2]), this compound showed a log p of 4.19.

As for `O=C(NC1CC1)c1cc2nc(C(=O)NC(c3ccc(F)c(C(F)(F)F)c3)C(F)(F)F)n(C3CC3)c2cc1Cl` (stereo not drawn) [Compound 313], the efficacy in % with Tetranychus urticae (application rate 500 g/ha) was 90%; in the data set on Myzus persicae (application rate 500 g/ha), 90%; in the data set on Phaedon cochleariae (application rate 500 g/ha), 100%; in the data set on Spodoptera frugiperda (application rate 500 g/ha) it was 100%. The compound further came in with a log p in the data set “logP (HPLC-MS)” (setting [2]) of 3.38.

Turning to `C#CCn1c(C(=O)NC(c2ccc(F)c(Cl)c2)C(F)(F)F)nc2cc(C(=O)NC3CC3)c(Cl)cc21` (stereo not drawn) [Compound 101], the efficacy in % is on record as 80% with Tetranychus urticae (application rate 100 g/ha), 80% in the data set with Myzus persicae (application rate 100 g/ha), 100% with Phaedon cochleariae (application rate 100 g/ha) and 100% in the data set on Spodoptera frugiperda (application rate 100 g/ha). This compound came in with a log p in “logP (HPLC-MS)” (setting [1]) of 3.50.

Take `CCn1c(C(=O)NC(c2cc(Cl)c(F)c(Cl)c2)C(F)(F)F)cc2cc(C(=O)NC3(C#N)CC3)c(C)cc21` (stereo not drawn) [Compound 290]: the efficacy in % with Tetranychus urticae (application rate 100 g/ha), with Myzus persicae (application rate 500 g/ha), in the data set on Phaedon cochleariae (application rate 100 g/ha) and in the data set with Spodoptera frugiperda (application rate 100 g/ha) was 100% throughout. This compound yielded a log p in the data set “logP (HPLC-MS)” (setting [2]) of 4.13.

Consider `CCn1c(C(=O)NC(c2ccc(F)c(Cl)c2)C(F)(F)F)cc2cc(C(=O)NC3(C#N)CC3)c(C)cc21` (stereo not drawn) [Compound 193], for which the efficacy in % with Tetranychus urticae (application rate 100 g/ha) stood at 100%; in the data set with Myzus persicae (application rate 100 g/ha), 90%; in the data set with Phaedon cochleariae (application rate 100 g/ha) it was 100%; in the data set with Spodoptera frugiperda (application rate 100 g/ha), 100%. This compound yielded a log p in “logP (HPLC-MS)” (setting [1]) of 3.66.

In the case of `O=C(NC1CC1)c1cc2nc(C(=O)NC(c3cccc(C(F)(F)F)c3)C(F)(F)F)n(C3CC3)c2cc1Cl` (stereo not drawn) [Compound 312, 6-chloro-N^5,1-dicyclopropyl-N^2-{2,2,2-trifluoro-1-[3-(trifluoromethyl)phenyl]ethyl}-1H-benzimidazole-2,5-dicarboxamide], the efficacy in % with Myzus persicae (application rate 100 g/ha), with Myzus persicae (application rate 500 g/ha) and with Spodoptera frugiperda (application rate 500 g/ha) was 100% in each case. In the data set with Phaedon cochleariae (Phaedon cochleariae, foliar, 168 h, application rate 500 g/ha, read-out: efficacy in %), the pest or weed control at 500 g/ha amounted to 100%. In addition, the chromatographic logP in “logP (HPLC-MS)” (HPLC, reversed-phase column (C18), 43° C., acidic range pH 2.7, EEC directive 79/831 Annex V.A8, two values = both regioisomers (G = N), read-out: log p) was 3.48; in the data set “logP (HPLC-MS)” (HPLC-MS), 3.48.

For `O=C(NC1CC1)c1cc2nc(C(=O)NC(c3cccc(Br)c3)C(F)(F)F)n(C3CC3)c2cc1Cl` (stereo not drawn) [Compound 314], the efficacy in % in the data set with Tetranychus urticae (application rate 100 g/ha) was determined as 90%; in the data set with Myzus persicae (application rate 100 g/ha), 90%; in the data set on Phaedon cochleariae (application rate 100 g/ha), 100%; with Spodoptera frugiperda (application rate 100 g/ha), 100%. Besides, the log p in the data set “logP (HPLC-MS)” (setting [2]) was 3.43.

With `C=CCN(C(=O)c1cc2nc(C(=O)NC(c3ccc(F)c(Cl)c3)C(F)(F)F)n(CC=C)c2cc1Cl)C1CC1` (stereo not drawn) [Compound 303], the efficacy in % in the data set with Tetranychus urticae (application rate 500 g/ha) was determined as 100%; with Myzus persicae (application rate 100 g/ha), 90%; in the data set with Phaedon cochleariae (application rate 500 g/ha), 100%; with Spodoptera frugiperda (application rate 500 g/ha) it was 100%. The compound also had a log p in the data set “logP (HPLC-MS)” (setting [2]) of 4.75.

On to `C=CCn1c(C(=O)NC(c2ccc(F)c(C(F)(F)F)c2)C(F)(F)F)nc2cc(C(=O)NC3CC3)c(Cl)cc21` (stereo not drawn) [Compound 281], for which the efficacy in % in the data set on Tetranychus urticae (application rate 500 g/ha) is 100%; with Myzus persicae (application rate 100 g/ha) it was 100%; in the data set with Myzus persicae (application rate 500 g/ha), 90%; with Phaedon cochleariae (application rate 500 g/ha), 100%; with Spodoptera frugiperda (application rate 500 g/ha), 100%. Further, in “logP (HPLC-MS)” (setting [2]), the log p is 3.79.

Regarding `CCn1c(C(=O)NC(c2ccc(F)c(F)c2)C(F)(F)F)cc2cc(C(=O)NC3(C#N)CC3)c(Cl)cc21` (stereo not drawn) [Compound 315], the efficacy in % came to 100% in the data set with Tetranychus urticae (application rate 100 g/ha), 90% with Myzus persicae (application rate 100 g/ha), 100% with Phaedon cochleariae (application rate 100 g/ha) and 100% with Spodoptera frugiperda (application rate 100 g/ha). For the same compound, in the data set “logP (HPLC-MS)” (setting [2]), the log p is reported as 3.47.

For the compound `O=C(NC1CC1)c1cc2nc(C(=O)NC(c3ccc(F)c(C(F)(F)F)c3)C(F)(F)F)n(C3CC3)c2cc1Br` (stereo not drawn) [Compound 300], the efficacy in % with Tetranychus urticae (application rate 500 g/ha), with Myzus persicae (application rate 100 g/ha), in the data set with Phaedon cochleariae (application rate 500 g/ha) and with Spodoptera frugiperda (application rate 500 g/ha) was 100% throughout. The compound further had a log p in the data set “logP (HPLC-MS)” (setting [2]) of 3.59.

In the case of `CCn1c(C(=O)NC(c2cc(Cl)c(Cl)c(Cl)c2)C(F)(F)F)cc2cc(C(=O)NC3(C#N)CC3)c(C)cc21` (stereo not drawn) [Compound 289], the efficacy in % with Tetranychus urticae (application rate 100 g/ha), with Myzus persicae (application rate 500 g/ha), in the data set on Phaedon cochleariae (application rate 100 g/ha) and with Spodoptera frugiperda (application rate 100 g/ha) was 100% in each case. In addition, the log p in the data set “logP (HPLC-MS)” (setting [2]) turned out to be 4.43.

Turning to `CCn1c(C(=O)NC(c2cc(Cl)cc(Cl)c2)C(F)(F)F)cc2cc(C(=O)NC3(C#N)CC3)c(C)cc21` (stereo not drawn) [Compound 291], the efficacy in % came out at 100% in the data set with Tetranychus urticae (application rate 100 g/ha), 90% in the data set on Myzus persicae (application rate 100 g/ha), 100% in the data set on Phaedon cochleariae (application rate 100 g/ha) and 100% in the data set on Spodoptera frugiperda (application rate 100 g/ha). Further, the log p in the data set “logP (HPLC-MS)” (setting [2]) is 4.07.
